Drawing on US6030643A, “Potassium, sodium and tris oxaprozin salt pharmaceutical formulations” (priority 1997, dated 2000), this text covers solubility and Photosensitivity for four compounds.

Counter-ions that a name gives are not always drawn. Like-named read-outs stand apart in the source and are kept apart here.

Series [1] is described as follows: Solubility of oxaprozin and its salts. The format is physicochemical.
Another series in a line: Light sensitivity. The format is physicochemical.

For the compound `O=C(O)CCc1nc(-c2ccccc2)c(-c2ccccc2)o1` [oxaprozin, 4,5-diphenyl-2-oxazolepropionic acid], the solubility in series [1] was 1.7 mg/mL.

As for `O=C([O-])CCc1nc(-c2ccccc2)c(-c2ccccc2)o1.[K+]` [potassium salt of oxaprozin, 4,5-diphenyl-2-oxazolepropanoic acid, potassium salt], in series [1] (read-out: Solubility), the solubility is 370 mg/mL. The Photosensitivity result in “Light sensitivity” is listed as “photosensitive material”.

`O=C(O)CCc1nc(-c2ccccc2)c(-c2ccccc2)o1` [TRIS salt of oxaprozin, 4,5-diphenyl-2-oxazolepropanoic acid, tris(hydroxymethyl)aminomethanesalt]: in series [1], the solubility was determined as 380 mg/mL.

As for `O=C([O-])CCc1nc(-c2ccccc2)c(-c2ccccc2)o1.[Na+]` [sodium salt of oxaprozin, 4,5-diphenyl-2-oxazolepropanoic acid, sodium salt], in series [1] (read-out: Solubility), the solubility is 260 mg/mL.

What is called solubility is the dissolved amount per volume that the medium holds.
